Like-named read-outs stand apart in the source and are kept apart here.
How the values were obtained:
P. aeruginosa HM-214 = settings: strain HM-214; antibiotic + D-11 (MICb/MICbc 128/4)
Summary of the method: (§1)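 CLSI broth dilution; MHB; ~1 × 10^6 CFU/mL suspension mixed equal volume with drug; 37 °C for 18 h; visual read; triplicate. Broth sometimes supplemented with PG, PE, PC, CL, LPS, MgCl2, CaCl2 or PAβN.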

P. aeruginosa AUMC-Pa-2 = settings: strain AUMC-Pa-2; antibiotic + D-11 (MICb/MICbc 64/4)
Summary of the method: as §1

P. aeruginosa AUMC-Pa-1 = settings: strain AUMC-Pa-1; antibiotic + D-11 (MICb/MICbc 128/4)
Summary of the method: as §1

P. aeruginosa AUMC-Pa-6 = test: microbe, parasite or virus in culture; settings: strain AUMC-Pa-6
Summary of the method: as §1

P. aeruginosa AUMC-Pa-3 = test: microbe, parasite or virus in culture; settings: strain AUMC-Pa-3
Summary of the method: as §1

P. aeruginosa AUMC-Pa-5 = test: microbe, parasite or virus in culture
Summary of the method: as §1

P. aeruginosa AUMC-Pa-4 = test: microbe, parasite or virus in culture; settings: strain AUMC-Pa-4
Summary of the method: as §1

P. aeruginosa PAO1 = test: microbe, parasite or virus in culture; settings: S1 Table; macrolide alone; PAO1
Summary of the method: as §1

P. aeruginosa NR-31040 = test: microbe, parasite or virus in culture; design: MICa: MIC of the antibiotic / MICac: MIC of the antibiotic in the combination: unit not given beside the values; settings: strain NR-31040
Summary of the method: as §1

P. aeruginosa ATCC27853 = test: microbe, parasite or virus in culture; design: MICa: MIC of the antibiotic / MICac: MIC of the antibiotic in the combination: unit not given beside the values; settings: strain ATCC27853
Summary of the method: as §1

P. aeruginosa PAK = test: microbe, parasite or virus in culture; design: MICa: MIC of the antibiotic / MICac: MIC of the antibiotic in the combination: unit not given beside the values; settings: strain PAK
Summary of the method: as §1

P. aeruginosa PA14 = test: microbe, parasite or virus in culture; design: MICa: MIC of the antibiotic / MICac: MIC of the antibiotic in the combination: unit not given beside the values; settings: strain PA14
Summary of the method: as §1

P. aeruginosa NR-31041 = test: microbe, parasite or virus in culture; design: MICa: MIC of the antibiotic / MICac: MIC of the antibiotic in the combination: unit not given beside the values; settings: strain NR-31041
Summary of the method: as §1

[1] = test system: clinical P. aeruginosa isolates; test: microbe, parasite or virus in culture; settings: Pseudomonas aeruginosa, 18 h, antibiotic alone
Summary of the method: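 MIC is the lowest drug concentration showing no visible growth after 18 h at 37 °C. Two-fold dilutions in MHB were combined with an equal volume of bacterial suspension (about 1 × 10^6 CFU/mL), following CLSI broth microdilution, in triplicate.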

[2] = antibiotic + D-11 (MICb/MICbc 64/4)
[3] = antibiotic alone, unit not given
[4] = with D-11 at MICbc 4, unit not given
[5] = antibiotic + D-11 (MICb/MICbc 128/4)

MICa: MIC of the antibiotic (P. aeruginosa AUMC-Pa-6; [3]): 128 | MICac: MIC of the antibiotic in the combination (P. aeruginosa AUMC-Pa-6; [4]): 32 | MICa: MIC of the antibiotic (P. aeruginosa AUMC-Pa-3; [3]): 128 | MICac: MIC of the antibiotic in the combination (P. aeruginosa AUMC-Pa-3; [4]): 8 | MIC (P. aeruginosa AUMC-Pa-5; Pseudomonas aeruginosa, AUMCPA5, 18 h, read-out: MICa: MIC of the antibiotic): > 128 µM | MICac: MIC of the antibiotic in the combination (P. aeruginosa AUMC-Pa-5; strain AUMC-Pa-5, with D-11 at MICbc 4, unit not given): 32 | MICa: MIC of the antibiotic (P. aeruginosa AUMC-Pa-4; [3]): 128 | MICac: MIC of the antibiotic in the combination (P. aeruginosa AUMC-Pa-4; [4]): 32 | MICa: the MIC of antibiotics (P. aeruginosa PAO1): 128 µM | MICa: MIC of the antibiotic (P. aeruginosa NR-31040; [3]): 128 | MICac: MIC of the antibiotic in the combination (P. aeruginosa NR-31040; [4]): 32 | MICa: MIC of the antibiotic (P. aeruginosa ATCC27853; [3]): 128 | MICac: MIC of the antibiotic in the combination (P. aeruginosa ATCC27853; [4]): 8 | MICa: MIC of the antibiotic (P. aeruginosa PAK; [3]): 128 | MICac: MIC of the antibiotic in the combination (P. aeruginosa PAK; [4]): 16 | MICa: MIC of the antibiotic (P. aeruginosa PA14; [3]): 128 | MICac: MIC of the antibiotic in the combination (P. aeruginosa PA14; [4]): 32 | MICa: MIC of the antibiotic (P. aeruginosa NR-31041; [3]): 128 | MICac: MIC of the antibiotic in the combination (P. aeruginosa NR-31041; [4]): 16 | MIC ([1]; read-out: Antibiotic sensibility (MIC) of clinical P. aeruginosa isolate AUMC-Pa-1, strain AUMC-Pa-1): 128 µM | MIC ([1]; read-out: Antibiotic sensibility (MIC) of clinical P. aeruginosa isolate AUMC-Pa-2, strain AUMC-Pa-2): 128 µM | MIC ([1]; read-out: Antibiotic sensibility (MIC) of clinical P. aeruginosa isolate AUMC-Pa-3, strain AUMC-Pa-3): 128 µM | MIC ([1]; read-out: Antibiotic sensibility (MIC) of clinical P. aeruginosa isolate AUMC-Pa-4, strain AUMC-Pa-4): 128 µM | MIC ([1]; read-out: Antibiotic sensibility (MIC) of clinical P. aeruginosa isolate AUMC-Pa-5, strain AUMC-Pa-5): > 128 µM | MIC ([1]; read-out: Antibiotic sensibility (MIC) of clinical P. aeruginosa isolate AUMC-Pa-6, strain AUMC-Pa-6): 128 µM | MIC ([1]; read-out: Antibiotic sensibility (MIC) of clinical P. aeruginosa isolate HM-214, strain HM-214): 128 µM | MIC ([1]; read-out: Antibiotic sensibility (MIC) of clinical P. aeruginosa isolate NR-31040, strain NR-31040): 128 µM | MIC ([1]; read-out: Antibiotic sensibility (MIC) of clinical P. aeruginosa isolate NR-31041, strain NR-31041): 128 µM
SMILES: CC[C@H]1OC(=O)[C@H](C)[C@@H](O[C@H]2C[C@@](C)(OC)[C@@H](O)[C@H](C)O2)[C@H](C)[C@@H](O[C@@H]2O[C@H](C)C[C@H](N(C)C)[C@H]2O)[C@](C)(OC)C[C@@H](C)C(=O)[C@H](C)[C@@H](O)[C@]1(C)O [Clarithromycin]
FICI (P. aeruginosa HM-214): 0.281 | FICI (P. aeruginosa AUMC-Pa-2): 0.313 | FICI (P. aeruginosa AUMC-Pa-1): 0.156 | FICI (P. aeruginosa AUMC-Pa-6; [2]): 0.313 | FICI (P. aeruginosa AUMC-Pa-3; [5]): 0.094 | FICI (P. aeruginosa AUMC-Pa-5; strain AUMC-Pa-5, antibiotic + D-11 (MICb/MICbc 64/4)): 0.188 | FICI (P. aeruginosa AUMC-Pa-4; [5]): 0.281 | FICI (P. aeruginosa NR-31040; [5]): 0.281 | FICI (P. aeruginosa ATCC27853; antibiotic + D-11 (MICb/MICbc 32/4)): 0.188 | FICI (P. aeruginosa PAK; [2]): 0.188 | FICI (P. aeruginosa PA14; [5]): 0.281 | FICI (P. aeruginosa NR-31041; [2]): 0.188

From paper PMC8445441, “Elucidating the mechanism by which synthetic helper peptides sensitize Pseudomonas aeruginosa to multiple antibiotics” (PLoS Pathogens, 2021)
